# Source: patent publication US12122763B2, “Substituted piperidines for androgen receptor degradation” (UBIX THERAPEUTICS, INC., priority 2020, dated 2024)
# Molecular target: T1, Androgen Receptor (AR) protein (Homo sapiens, UniProt P10275, T878A)
# T1 construct: endogenous in cells; host or cells: LNCaP
# Experiment: Androgen Receptor (AR) protein degradation assay in LNCaP cells, western blotting
# Type: cell-based
# Details: 20 h; for inhibition at 0.01 µM: 0.01 μM compound; for inhibition at 0.1 µM: 0.1 μM compound; for inhibition at 1 µM: 1 μM compound; for inhibition at 10 µM: 10 μM compound
# Procedure, shortened: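 AR protein level was detected by western blot (ECL) against GAPDH or β-actin controls, with 8 μg lysate protein loaded per lane after BCA quantification. Lysates came from LNCaP cells exposed to test compound for 20 h, following 3 days of growth in RPMI/10% FBS.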
# T1 sequence (P10275 whole entry T878A): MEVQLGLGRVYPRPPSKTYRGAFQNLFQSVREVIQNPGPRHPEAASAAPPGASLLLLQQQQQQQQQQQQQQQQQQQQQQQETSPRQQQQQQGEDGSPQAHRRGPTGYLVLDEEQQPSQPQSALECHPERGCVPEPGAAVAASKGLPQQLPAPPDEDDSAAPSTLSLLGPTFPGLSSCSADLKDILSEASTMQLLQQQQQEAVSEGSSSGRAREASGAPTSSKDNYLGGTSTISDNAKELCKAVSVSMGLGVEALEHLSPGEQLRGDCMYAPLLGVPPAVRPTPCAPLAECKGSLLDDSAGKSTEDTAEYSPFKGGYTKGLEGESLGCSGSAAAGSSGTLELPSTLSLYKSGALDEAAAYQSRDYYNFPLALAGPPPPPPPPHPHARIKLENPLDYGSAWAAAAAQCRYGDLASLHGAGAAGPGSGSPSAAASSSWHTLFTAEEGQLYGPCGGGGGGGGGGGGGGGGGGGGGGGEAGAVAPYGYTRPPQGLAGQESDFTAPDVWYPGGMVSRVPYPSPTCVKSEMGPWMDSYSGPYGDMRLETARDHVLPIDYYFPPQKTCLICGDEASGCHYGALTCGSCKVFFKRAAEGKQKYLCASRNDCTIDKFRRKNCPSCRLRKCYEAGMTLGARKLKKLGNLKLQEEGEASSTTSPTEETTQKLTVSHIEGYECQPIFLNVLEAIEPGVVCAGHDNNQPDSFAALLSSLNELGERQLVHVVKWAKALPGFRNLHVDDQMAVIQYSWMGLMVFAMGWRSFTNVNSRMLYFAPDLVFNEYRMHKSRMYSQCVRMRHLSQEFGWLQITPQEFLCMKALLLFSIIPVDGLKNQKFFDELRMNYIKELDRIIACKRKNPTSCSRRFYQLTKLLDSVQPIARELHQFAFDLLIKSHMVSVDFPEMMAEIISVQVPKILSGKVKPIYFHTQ
# T1 sequence (Q96SW2 whole entry partner): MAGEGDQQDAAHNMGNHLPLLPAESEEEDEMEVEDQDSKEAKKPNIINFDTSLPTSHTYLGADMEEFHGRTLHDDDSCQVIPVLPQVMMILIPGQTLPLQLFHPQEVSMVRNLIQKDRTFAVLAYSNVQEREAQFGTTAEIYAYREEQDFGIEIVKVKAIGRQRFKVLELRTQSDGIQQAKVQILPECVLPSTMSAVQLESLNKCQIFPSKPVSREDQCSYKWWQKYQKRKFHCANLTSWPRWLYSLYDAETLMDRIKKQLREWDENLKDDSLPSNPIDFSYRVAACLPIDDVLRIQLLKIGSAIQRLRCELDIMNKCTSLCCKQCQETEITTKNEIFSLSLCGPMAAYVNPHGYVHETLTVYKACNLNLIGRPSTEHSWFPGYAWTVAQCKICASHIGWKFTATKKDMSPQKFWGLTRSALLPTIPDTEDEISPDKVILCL
SMILES,inhibition at 0.01 µM [%],inhibition at 0.1 µM [%],inhibition at 1 µM [%],inhibition at 10 µM [%]
"N#Cc1ccc(N2CCC(C(=O)Nc3ccc(N4CCC(CN5CC6(CCN(c7ccc8c(c7)C(=O)N(C7CCC(=O)NC7=O)C8=O)CC6)C5)CC4)nc3)CC2)cc1C(F)(F)F (stereo not shown) [Example 59, 1-(4-cyano-3-(trifluoromethyl)phenyl)-N-(6-(4-((7-(2-(2,6-dioxopiperidin-3-yl)-1,3-dioxoisoindolin-5-yl)-2,7-diazaspiro[3.5]nonan-2-yl)methyl)piperidin-1-yl)pyridin-3-yl)piperidine-4-carboxamide]",9,32,47,68
"N#Cc1ccc(N2CCC(C(=O)Nc3ccc(N4CCC(CN5CC6(CCN(c7ccc8c(c7)C(=O)N(C7CCC(=O)NC7=O)C8=O)CC6)C5)CC4)nc3)CC2)cc1Cl (stereo not shown) [Example 60, 1-(3-chloro-4-cyanophenyl)-N-(6-(4-((7-(2-(2,6-dioxopiperidin-3-yl)-1,3-dioxoisoindolin-5-yl)-2,7-diazaspiro[3.5]nonan-2-yl)methyl)piperidin-1-yl)pyridin-3-yl)piperidine-4-carboxamide]",16,32,32,66
"N#Cc1ccc(N2CCC(C(=O)Nc3ccc(N4CC[C@@H](CN5CC6(CCN(c7ccc8c(c7)C(=O)N(C7CCC(=O)NC7=O)C8=O)CC6)C5)C4)cn3)CC2)cc1C(F)(F)F (stereo partly drawn) [Example 61, 1-(4-cyano-3-(trifluoromethyl)phenyl)-N-(5-((3S)-3-((7-(2-(2,6-dioxopiperidin-3-yl)-1,3-dioxoisoindolin-5-yl)-2,7-diazaspiro[3.5]nonan-2-yl)methyl)pyrrolidin-1-yl)pyridin-2-yl)piperidine-4-carboxamide]",57,94.5,97.5,96
"N#Cc1ccc(N2CCC(C(=O)Nc3ccc(N4CC[C@H](CN5CC6(CCN(c7ccc8c(c7)C(=O)N(C7CCC(=O)NC7=O)C8=O)CC6)C5)C4)cn3)CC2)cc1C(F)(F)F (stereo partly drawn) [Example 62, 1-(4-cyano-3-(trifluoromethyl)phenyl)-N-(5-((3R)-3-((7-(2-(2,6-dioxopiperidin-3-yl)-1,3-dioxoisoindolin-5-yl)-2,7-diazaspiro[3.5]nonan-2-yl)methyl)pyrrolidin-1-yl)pyridin-2-yl)piperidine-4-carboxamide]",69,95,96,87.5
"N#Cc1ccc(N2CCC(C(=O)Nc3ccc(N4CCC(CN5CCC6(CC5)CN(c5ccc7c(c5)C(=O)N(C5CCC(=O)NC5=O)C7=O)C6)CC4)cn3)CC2)cc1C(F)(F)F (stereo not shown) [Example 63, 1-(4-cyano-3-(trifluoromethyl)phenyl)-N-(5-(4-((2-(2-(2,6-dioxopiperidin-3-yl)-1,3-dioxoisoindolin-5-yl)-2,7-diazaspiro[3.5]nonan-7-yl)methyl)piperidin-1-yl)pyridin-2-yl)piperidine-4-carboxamide]",45,94,98.5,94.5
"N#Cc1ccc(N2CCC(C(=O)Nc3ccc(N4CCC(CN5CCC6(CC5)CN(c5ccc7c(c5)C(=O)N(C5CCC(=O)NC5=O)C7=O)C6)CC4)cn3)CC2)cc1Cl (stereo not shown) [Example 64, 1-(3-chloro-4-cyanophenyl)-N-(5-(4-((2-(2-(2,6-dioxopiperidin-3-yl)-1,3-dioxoisoindolin-5-yl)-2,7-diazaspiro[3.5]nonan-7-yl)methyl)piperidin-1-yl)pyridin-2-yl)piperidine-4-carboxamide]",71.5,97,98.5,98.5
"COc1ccc(C(=O)N2CC3(CCN(CC4CCN(c5ccc(NC(=O)C6CCN(c7ccc(C#N)c(C(F)(F)F)c7)CC6)nc5)CC4)CC3)C2)cc1N1CCC(=O)NC1=O [Example 65, 1-(4-cyano-3-(trifluoromethyl)phenyl)-N-(5-(4-((2-(3-(2,4-dioxotetrahydropyrimidin-1(2H)-yl)-4-methoxybenzoyl)-2,7-diazaspiro[3.5]nonan-7-yl)methyl)piperidin-1-yl)pyridin-2-yl)piperidine-4-carboxamide]",55,80,82,63
"N#Cc1ccc(N2CCC(C(=O)Nc3ccc(N4CCC(CN5CC6(C5)CN(c5ccc7c(c5)C(=O)N(C5CCC(=O)NC5=O)C7=O)C6)CC4)cn3)CC2)cc1C(F)(F)F (stereo not shown) [Example 66, 1-(4-cyano-3-(trifluoromethyl)phenyl)-N-(5-(4-((6-(2-(2,6-dioxopiperidin-3-yl)-1,3-dioxoisoindolin-5-yl)-2,6-diazaspiro[3.3]heptan-2-yl)methyl)piperidin-1-yl)pyridin-2-yl)piperidine-4-carboxamide]",75.5,95.5,97,94
"N#Cc1ccc(N2CCC(C(=O)Nc3ccc(N4CCC(CN5CC6(C5)CN(c5ccc7c(c5)C(=O)N(C5CCC(=O)NC5=O)C7=O)C6)CC4)cn3)CC2)cc1Cl (stereo not shown) [Example 67, 1-(3-chloro-4-cyanophenyl)-N-(5-(4-((6-(2-(2,6-dioxopiperidin-3-yl)-1,3-dioxoisoindolin-5-yl)-2,6-diazaspiro[3.3]heptan-2-yl)methyl)piperidin-1-yl)pyridin-2-yl)piperidine-4-carboxamide]",46,90,88,86
"N#Cc1ccc(N2CCC(C(=O)Nc3ccc(N4CCC(CN5CCC6(CC5)CCN(c5ccc7c(c5)C(=O)N(C5CCC(=O)NC5=O)C7=O)CC6)CC4)cn3)CC2)cc1C(F)(F)F (stereo not shown) [Example 68, 1-(4-cyano-3-(trifluoromethyl)phenyl)-N-(5-(4-((9-(2-(2,6-dioxopiperidin-3-yl)-1,3-dioxoisoindolin-5-yl)-3,9-diazaspiro[5.5]undecan-3-yl)methyl)piperidin-1-yl)pyridin-2-yl)piperidine-4-carboxamide]",66,91,90,85
"N#Cc1ccc(N2CCC(C(=O)Nc3ccc(N4CCC(CN5CCC6(CC5)CCN(c5ccc7c(c5)C(=O)N(C5CCC(=O)NC5=O)C7=O)CC6)CC4)cn3)CC2)cc1Cl (stereo not shown) [Example 69, 1-(3-chloro-4-cyanophenyl)-N-(5-(4-((9-(2-(2,6-dioxopiperidin-3-yl)-1,3-dioxoisoindolin-5-yl)-3,9-diazaspiro[5.5]undecan-3-yl)methyl)piperidin-1-yl)pyridin-2-yl)piperidine-4-carboxamide]",40,83,85,82
"N#Cc1ccc(N2CCC(C(=O)Nc3ccc(N4CCC(CN5CCN(C6CCN(c7ccc8c(c7)C(=O)N(C7CCC(=O)NC7=O)C8=O)CC6)CC5)CC4)cn3)CC2)cc1C(F)(F)F (stereo not shown) [Example 70, 1-(4-cyano-3-(trifluoromethyl)phenyl)-N-(5-(4-((4-(1-(2-(2,6-dioxopiperidin-3-yl)-1,3-dioxoisoindolin-5-yl)piperidin-4-yl)piperazin-1-yl)methyl)piperidin-1-yl)pyridin-2-yl)piperidine-4-carboxamide]",85,99,99,97
"N#Cc1ccc(N2CCC(C(=O)Nc3ccc(N4CCC(CN5CCN(C6CCN(c7ccc8c(c7)C(=O)N(C7CCC(=O)NC7=O)C8=O)CC6)CC5)CC4)cn3)CC2)cc1Cl (stereo not shown) [Example 71, 1-(3-chloro-4-cyanophenyl)-N-(5-(4-((4-(1-(2-(2,6-dioxopiperidin-3-yl)-1,3-dioxoisoindolin-5-yl)piperidin-4-yl)piperazin-1-yl)methyl)piperidin-1-yl)pyridin-2-yl)piperidine-4-carboxamide]",75,97,98,98
"N#Cc1ccc(N2CCC(F)(C(=O)Nc3ccc(N4CCC(CN5CCN(C6CCN(c7ccc8c(c7)C(=O)N(C7CCC(=O)NC7=O)C8=O)CC6)CC5)CC4)cn3)CC2)cc1C(F)(F)F (stereo not shown) [Example 72, 1-(4-cyano-3-(trifluoromethyl)phenyl)-N-(5-(4-((4-(1-(2-(2,6-dioxopiperidin-3-yl)-1,3-dioxoisoindolin-5-yl)piperidin-4-yl)piperazin-1-yl)methyl)piperidin-1-yl)pyridin-2-yl)-4-fluoropiperidine-4-carboxamide]",59,94,97,–
"N#Cc1ncc(N2CCC(C(=O)Nc3ccc(N4CCC(CN5CCN(C6CCN(c7ccc8c(c7)C(=O)N(C7CCC(=O)NC7=O)C8=O)CC6)CC5)CC4)cn3)CC2)cc1C(F)(F)F (stereo not shown) [Example 73, 1-(6-cyano-5-(trifluoromethyl)pyridin-3-yl)-N-(5-(4-((4-(1-(2-(2,6-dioxopiperidin-3-yl)-1,3-dioxoisoindolin-5-yl)piperidin-4-yl)piperazin-1-yl)methyl)piperidin-1-yl)pyridin-2-yl)piperidine-4-carboxamide]",55,88,92,–
"N#Cc1ncc(N2CCC(F)(C(=O)Nc3ccc(N4CCC(CN5CCN(C6CCN(c7ccc8c(c7)C(=O)N(C7CCC(=O)NC7=O)C8=O)CC6)CC5)CC4)cn3)CC2)cc1C(F)(F)F (stereo not shown) [Example 74, 1-(6-cyano-5-(trifluoromethyl)pyridin-3-yl)-N-(5-(4-((4-(1-(2-(2,6-dioxopiperidin-3-yl)-1,3-dioxoisoindolin-5-yl)piperidin-4-yl)piperazin-1-yl)methyl)piperidin-1-yl)pyridin-2-yl)-4-fluoropiperidine-4-carboxamide]",20,66,83,–
